Columns and labels:
[1] = test system: Col1a1 expression in human osteoarthritic chondrocytes; assay: Col1a1 relative expression in human osteoarthritic chondrocytes (passage 5) cultured 27 days; type: cell-based; conditions: 50 micromolar Dec, 0.1 μM Dxp, 100 mM Lac
Method: To evaluate the biological ramifications of the SOX9 to RUNX2 regulation mentioned above, delta-delta relative gene expression was assessed against medium controls, with normalization to GAPDH for both Col2a1 and Col1a1 in the samples tested with reference to Example 15. […] Moreover, treatment with 100 mM Lac increased collagen expression (49.88±4.31 and 1.63±0.20 for Col2a1 and Col1a1, respectively; FIGS. 51 and 52).

[2] = test system: PGE2 release from passage 3 normal human chondrocytes; assay: Rescue versus preincubation regimens, IL-1β-induced PGE2 release from passage 3 normal human chondrocytes; type: cell-based; conditions: 25 μM Dec, 28 mM Lac, 10 μM LA, singlet
Source text: The mechanisms of action (MOA) of a drug often dictate the timing and delivery of treatment regimens. While the MOA of compounds disclosed herein continue to be elucidated, experiments were designed to help establish how the drugs should be administered. Furthermore, these experiments will also help with hypothesis generation for subsequent MOA investigations. A low-passage chondrocyte monolayer model was utilized to establish how changes in drug delivery impact the inhibition of IL-1β-induced PGE2 release seen following treatment with the compounds under investigation.
Passage 3 normal human chondrocytes were seeded into tissue culture plates and then tested for compound activity by pre-treating for 24 hours, administering at the same time as activation, or by adding to cells following an overnight activation with IL-1β. Treatment groups included medium control, 25 μM decanoate (Dec), 28 mM D/L sodium Lac, and 10 μM LA. PGE2 release was then evaluated 24- or 96-hours post-activation with percent inhibitions calculated versus plate- and block-matched controls. The experiments were performed in singlet and are intended to be repeated to establish variance.

[3] = test system: RUNX2 expression in human osteoarthritic chondrocytes; assay: RUNX2 relative expression in low passage osteoarthritic chondrocytes, 7, 14 or 28 days; type: cell-based; conditions: 7, 14, 28 days
Method: (§1) Media was exchanged bi-weekly. Chondrocytes cultured for 7 days, 14 days, or 28 days were analyzed to assess SOX9 and RUNX2 expression. SOX9 is a transcription factor vital to the development and maintenance of cartilage and is required for chondrogenesis. SOX9 promotes chondrocyte survival and transcriptionally activates cartilage-specific genes. SOX9 is repressed in hypertrophic chondrocytes (i.e. terminally differentiated osteoblast-like cells).
The RUNX2 expression is provided at 7, 14, and 28 days of culturing.

[4] = test system: SOX9 expression in human osteoarthritic chondrocytes; assay: SOX9 relative expression in high and low passage osteoarthritic chondrocytes, 7, 14 or 28 days; type: cell-based
Source text: as §1, with “Chondrocytes cultured for 7 days, 14 days, or 28 days were analyzed to assess SOX9 and RUNX2 expression.” left out

[5] = test system: Col2a1 expression in dedifferentiated osteoarthritic chondrocytes; assay: Col2a1 relative expression in dedifferentiated osteoarthritic chondrocytes treated 14 days with Lac; type: cell-based, human
Source text: Lac is commonly thought to be simply an end-product of anaerobic glycolysis; however, it may also have immunomodulatory effects and promote protein modifications that alter gene expression. The goal of this experiment was to determine how Lac supplementation affects early-phase, inflammatory, and late-stage redifferentiation in chondrocyte models. To establish how Lac may influence inflammation early in osteoarthritis, monolayers of normal human chondrocytes were exposed to Lac dose responses of up to 100 millimolar, concurrently with 0.5 nanograms per milliliter IL-1β for 48 hours. The release of PGE2 was then quantified using competitive EIA. To investigate how Lac affects transcriptional programs in dedifferentiated osteoarthritic chondrocytes, monolayer cultures and micromass pellets were treated for 14 days with 100 millimolar final concentrations of Lac, with and without 10 nanograms per milliliter transforming growth factor beta 3 (TGF-β3). Total RNA was then isolated, and relative expression of SOX9 or Col2a1 was calculated using qRT-PCR, normalized to GAPDH. […] Lac may also have beneficial effects on osteoarthritic chondrocytes; 100 millimolar final Lac concentrations increased the relative expression of SOX9 and Col2a1 by 8-fold and 1600-fold, respectively, in monolayer cultures. […] Furthermore, adding Lac with TGF-β3 to micromass cultures increased SOX9 and Col2a1 by 9-fold and 88-fold, respectively.

[6] = test system: ACAN expression in human osteoarthritic chondrocytes; assay: ACAN relative expression in human osteoarthritic chondrocytes (passage 5) cultured 27 days; type: cell-based; conditions: 50 micromolar Dec, 0.1 μM Dxp, 100 mM Lac
Source text: Delta-delta relative gene expression was employed to determine ACAN regulation in the 27-day samples referenced in Examples 15 and 16. A 3.81±0.77-fold increase in ACAN expression in the cells after 27 days of Lac treatment was observed. […] Without being bound by theory, it is hypothesized that these findings indicate that metabolic management and/or metabolite feedback loops represent promising therapy targets for osteoarthritis. Results associated with Example 17 are depicted in FIG. 53.

[7] = test system: Col2a1 expression in low passage osteoarthritic chondrocytes; assay: Col2a1 relative expression in low passage osteoarthritic chondrocytes; type: cell-based, human; conditions: day 28
[8] = test system: SOX9 expression in dedifferentiated osteoarthritic chondrocytes; assay: SOX9 relative expression in dedifferentiated osteoarthritic chondrocytes treated 14 days with Lac; type: cell-based, human
Source text: Lac is commonly thought to be simply an end-product of anaerobic glycolysis; however, it may also have immunomodulatory effects and promote protein modifications that alter gene expression. The goal of this experiment was to determine how Lac supplementation affects early-phase, inflammatory, and late-stage redifferentiation in chondrocyte models. To establish how Lac may influence inflammation early in osteoarthritis, monolayers of normal human chondrocytes were exposed to Lac dose responses of up to 100 millimolar, concurrently with 0.5 nanograms per milliliter IL-1β for 48 hours. The release of PGE2 was then quantified using competitive EIA. To investigate how Lac affects transcriptional programs in dedifferentiated osteoarthritic chondrocytes, monolayer cultures and micromass pellets were treated for 14 days with 100 millimolar final concentrations of Lac, with and without 10 nanograms per milliliter transforming growth factor beta 3 (TGF-β3). Total RNA was then isolated, and relative expression of SOX9 or Col2a1 was calculated using qRT-PCR, normalized to GAPDH. […] Lac may also have beneficial effects on osteoarthritic chondrocytes; 100 millimolar final Lac concentrations increased the relative expression of SOX9 and Col2a1 by 8-fold and 1600-fold, respectively, in monolayer cultures. […]

[9] = test system: PGE2 release from normal human chondrocytes; assay: IL-1β-induced PGE2 release from normal human chondrocyte monolayers, 48 h, competitive EIA; type: cell-based
Method: Mechanical stress and inflammation are thought to sustain catabolic cycles of extracellular matrix deterioration during osteoarthritis. In particular, PGE2 correlates with increased protease production and discomfort or pain in osteoarthritis.
After 48-hours, PGE2 release was evaluated by competitive EIA, and relative potency was calculated versus dose responses of Dex alone.
After 48 hours, PGE2 release was evaluated by competitive enzyme immunoassay (EIA), and relative potency was calculated versus Dex alone.
Lac is commonly thought to be simply an end-product of anaerobic glycolysis; however, it may also have immunomodulatory effects and promote protein modifications that alter gene expression. The goal of this experiment was to determine how Lac supplementation affects early-phase, inflammatory, and late-stage redifferentiation in chondrocyte models. To establish how Lac may influence inflammation early in osteoarthritis, monolayers of normal human chondrocytes were exposed to Lac dose responses of up to 100 millimolar, concurrently with 0.5 nanograms per milliliter IL-1β for 48 hours. The release of PGE2 was then quantified using competitive EIA. To investigate how Lac affects transcriptional programs in dedifferentiated osteoarthritic chondrocytes, monolayer cultures and micromass pellets were treated for 14 days with 100 millimolar final concentrations of Lac, with and without 10 nanograms per milliliter transforming growth factor beta 3 (TGF-β3). Total RNA was then isolated, and relative expression of SOX9 or Col2a1 was calculated using qRT-PCR, normalized to GAPDH.

[10] = low passage osteoarthritic chondrocytes, 7, 14, 28 days
[11] = 100 millimolar Lac with TGF-β3, 14 days, micromass cultures
[12] = 100 millimolar Lac, 14 days, monolayer cultures

CC(O)C(=O)O (stereo not shown) [Lac, lactate] was tested. Which “Col1a1 delta-delta relative gene expression” value [1] did it give?
Its value is 1.63±0.20 fold.

What about the “inhibition of PGE2 release” value ([2]; rescue (added after overnight IL-1β activation), 24-hour harvest) of the same compound?
Its value is 64%.

And the “inhibition of PGE2 release” value ([2]; rescue, 96-hour harvest)?
Its value is 27%.

And the RUNX2 expression [3]?
Its RUNX2 expression is “temporal decrease in RUNX2”.

What about the SOX9 expression ([4]; high passage, dedifferentiated osteoarthritic chondrocytes with TGF-β3, 14 days) of the same compound?
The SOX9 expression was “increased SOX9 transcription”.

And the SOX9 expression [4, 10]?
The SOX9 expression was “temporal increase in SOX9”.

What about the “ratio of SOX9/RUNX2” value [4, 10] of the same compound?
The value was “temporally increased”.

And the “increase in Col2a1” value [5, 11]?
The value was 88 fold.

And the increase in collagen ([5]; 100 millimolar Lac, 14 days, micromass pellets)?
Its increase in collagen is 11 fold.

What about the “increase in relative expression of Col2a1” value [5, 12] of the same compound?
Its value is 1600 fold.

And the “ACAN delta-delta relative gene expression” value [6]?
Its value is 3.81±0.77 fold.

And the “relative expression of Col2a1” value [7]?
The value was “elevated Col2a1 relative expression”.

And the “increase in SOX9” value [8, 11]?
The value was 9 fold.

What about the “increase in relative expression of SOX9” value [8, 12] of the same compound?
The value was 8 fold.

And the “concentration with statistically significant effect on PGE2 release” value ([9]; IL-1β 48 h)?
Its value is no less than 10 millimolar.

What about the “inhibition of PGE2 release” value ([9]; Lac 100 millimolar, 0.5 ng/mL IL-1β, 48 h) of the same compound?
Its value is “complete inhibition”.

Source: patent US20250288599A1, “PHARMACEUTICAL COMPOSITIONS AND METHODS FOR TREATING OSTEOARTHRITIS” (INSIGNIA PHARMACEUTICALS, LLC, priority 2024, published 2025)
